The first data set relates to miRNA sequences.
Test: not given
The conditions noted are these: known mechanism listed in Table 6; compounds will be tested; cited from earlier work.
Regarding `O=C(Nc1cccc(Br)c1)c1cccc(S(=O)(=O)N2CCCCCC2)c1` [AK-7], the Activity result is on record as “NAD-dependent deacetylase sirtuin 2 (SIRT2) inhibitor”. As for `COc1cc2nc(N3CCCN(C)CC3)nc(NC3CCN(Cc4ccccc4)CC3)c2cc1OC` [BIX-01294], the Activity entry is “G9a histone methyltransferase/ GLP histone methyltransferase (G9a/GLP) inhibitor”. With `COC(=O)CNC(=O)C(=O)OC` [DMOG], the Activity result was “Prolyl hydroxylase domain- containing protein (PHD/JMJD2A) inhibitor”.

Regarding `CN(C)NC(=O)CCC(=O)O` [Daminozide], the Activity result is “KDM2/KDM7 JmjC subfamily of histone demethylase inhibitor”. Consider `O=C(/C=C/c1cccnc1)NCCCCC1CCN(C(=O)c2ccccc2)CC1` [FK-866 HCI], for which the Activity entry was “Nicotinamide phosphoribosyl- transferase (Nampt) inhibitor”. Consider `O=C(O)CCNc1cc(N2CCc3ccccc3CC2)nc(-c2ccccn2)n1` [GSK-J1 (cell impermeable)], for which the Activity entry was “Jumonji H3K27 histone demethylase (JMJD3/UTX) inhibitor”. Regarding `Cc1ccc(-n2sc3ccccc3c2=O)cc1` [PBIT], the Activity result was “Jumanji AT-rich interactive domain 1 family of lysine demethylases (JARID1) inhibitor”. For the molecule `N[C@@H]1C[C@H]1c1ccccc1` [Tranyl- cypromine hemisulfate], the Activity entry was “Lysine-specific demethylase 1 (LSD1/BHC110) inhibitor”.

A further data set addresses T1, TLR7 (Mus musculus, UniProt P58681).
T1 construct: endogenous in cells; host or cells: RAW 264.7 murine macrophage cells
T1 sequence (P58681 27-1050): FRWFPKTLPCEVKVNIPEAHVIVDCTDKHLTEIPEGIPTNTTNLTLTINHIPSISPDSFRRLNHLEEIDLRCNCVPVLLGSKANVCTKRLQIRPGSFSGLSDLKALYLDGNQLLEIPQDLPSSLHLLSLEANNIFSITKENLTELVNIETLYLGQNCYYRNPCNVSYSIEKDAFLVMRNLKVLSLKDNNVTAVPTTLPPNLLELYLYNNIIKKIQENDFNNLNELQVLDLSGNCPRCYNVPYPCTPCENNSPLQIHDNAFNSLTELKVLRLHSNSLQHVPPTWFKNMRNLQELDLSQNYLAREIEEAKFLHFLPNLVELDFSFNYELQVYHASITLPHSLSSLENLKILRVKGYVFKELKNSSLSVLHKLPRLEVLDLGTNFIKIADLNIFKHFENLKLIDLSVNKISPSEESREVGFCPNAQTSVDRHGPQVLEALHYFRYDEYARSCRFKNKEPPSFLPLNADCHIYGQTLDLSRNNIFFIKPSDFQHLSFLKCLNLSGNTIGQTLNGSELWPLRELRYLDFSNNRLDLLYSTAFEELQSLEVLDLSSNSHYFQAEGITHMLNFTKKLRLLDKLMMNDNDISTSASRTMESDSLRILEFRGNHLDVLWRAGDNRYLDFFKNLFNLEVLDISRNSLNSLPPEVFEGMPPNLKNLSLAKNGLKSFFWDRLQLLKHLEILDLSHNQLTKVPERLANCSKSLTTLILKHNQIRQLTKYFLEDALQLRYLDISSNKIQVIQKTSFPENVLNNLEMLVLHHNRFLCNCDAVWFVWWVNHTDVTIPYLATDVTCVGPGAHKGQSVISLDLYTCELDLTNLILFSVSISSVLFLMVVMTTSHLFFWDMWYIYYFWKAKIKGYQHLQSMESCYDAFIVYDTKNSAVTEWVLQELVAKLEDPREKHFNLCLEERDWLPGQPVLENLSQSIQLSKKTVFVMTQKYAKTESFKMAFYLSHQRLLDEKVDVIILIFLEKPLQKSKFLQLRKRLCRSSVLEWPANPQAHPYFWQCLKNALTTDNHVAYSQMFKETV
Nature of the data set: Competition of TLR7 activation by uridine-deficient mutant miRNA in RAW 264.7 cells (secreted TNF-α). Type of data set: cell-based, murine. Particulars: constant dose of parent miRNA with increasing doses of mutant, 48 hours. The protocol: A) HEK 293 cells were transfected with a plasmid encoding TLR7-YFP (green) and either a Cy5-miR-146a mutant microRNA or Cy5-miR-142-3p mutant microRNA (red) […] post-transfection cells were fixed and confocal microscopy was performed using an Olympus FV-1000 at 100× magnification. […] B) RAW 264.7 murine macrophage cells were treated with a constant dose of miR-146a with increasing doses of a uridine-deficient miR-146a mutant. 48 hours later TLR7 activation was assessed via secreted TNF-α. […] C) RAW 264.7 murine macrophage cells were treated with a constant dose of […] with increasing doses of a uridine-deficient miR-142-3pmutant. 48 hours later TLR7 activation was assessed via secreted TNF-α.
“miR-142-3pmut: uridine-deficient mutant microRNA, sequence agaagagaaaccaacaaaaugga (SEQ ID NO:73) (AGAAGAGAAACCAACAAAAUGGA; listed as RNA, chemistry not given here; listed as Homo sapiens)”: the “competition of TLR7 activation by the parent miRNA” value is “can compete away TLR7 activation”.

As for “miR-146amut: uridine-deficient mutant microRNA, sequence agagaacagaaaaccacgggaa (SEQ ID NO:72) (AGAGAACAGAAAACCACGGGAA; listed as DNA, chemistry not given here; listed as Homo sapiens)”, the “competition of TLR7 activation by the parent miRNA” value is “can compete away the activation of TLR7 by miR-146a”.

The next data set addresses T2, Toll-like receptor 7 (Mus musculus, UniProt P58681).
T2 construct: endogenous in cells; host or cells: RAW 264.7 murine macrophage cells
T2 sequence (P58681 27-1050): T1 sequence (P58681 27-1050)
Description: Secreted TNF-α (ALPHA-LISA) in RAW 264.7 macrophages treated with miRNAs (TLR7 activation). It is filed as cell-based, murine. The conditions noted are these: RAW 264.7 cells, 5 ug RNA, 6, 24 and 48 h. How it is done:
FIG. 11A-11C depict how miR-146a and miR-142-3p bind to and activate the inflammatory Toll-like receptor 7. 11A) RAW 264.7 murine macrophage cells were treated the indicated treatments for 6, 24 and 48 h: 1) negative CTRL (−)=no treatment; 2) Gardiquimod (3 ug/mL)=+control for TLR7 activation; 3) miR-146a (5 ug) sequence: […] (SEQ ID NO:70), 4) miR-142-3p (5 ug) […] (SEQ ID NO:71); 5) miR-146amut (5 ug, sequence: […] (SEQ ID NO:72)); 6) miR-142-3pmut (5 ug, sequence: […] (SEQ ID NO:73)). After the indicated timepoints, media was collected and an ALPHA-LISA was performed to measure the amount of secreted TNF-α. […] B) RAW 264.7 murine macrophage cells were treated with gardiquimod or the indicated microRNAs for 48 h, where peak activation was observed. Secreted TNF-α was assessed as in A) using an ALPHA-LISA. C) HEK 293 cells were transfected with a plasmid encoding TLR7-YFP (green) and either a Cy5-miR-146a or Cy5-miR-142-3p (red). 48 h post-transfection cells were fixed and confocal microscopy was performed using an Olympus FV-1000 at 100× magnification.
For “miR-142-3p: microRNA, sequence uguaguguuuccuacuuuaugga (SEQ ID NO:71) (UGUAGUGUUUCCUACUUUAUGGA; listed as RNA, chemistry not given here; listed as Homo sapiens)”, the “secretion of TNF-α (TLR7 activation)” value is on record as “activate secretion of TNF-α”.

Consider “miR-142-3pmut: uridine-deficient mutant microRNA, sequence agaagagaaaccaacaaaaugga (SEQ ID NO:73) (AGAAGAGAAACCAACAAAAUGGA; listed as RNA, chemistry not given here; listed as Homo sapiens)”, for which the “secretion of TNF-α (TLR7 activation)” value is “prevents activation”. In the case of “miR-146amut: uridine-deficient mutant microRNA, sequence agagaacagaaaaccacgggaa (SEQ ID NO:72) (AGAGAACAGAAAACCACGGGAA; listed as DNA, chemistry not given here; listed as Homo sapiens)”, the “secretion of TNF-α (TLR7 activation)” value is given as “prevents activation”.
